In US20230146455A1, “TREATMENT OF INFLAMMATORY DISEASES WITH PEPTIDES AND PHARMACEUTICAL COMPOSITIONS” (Yuyu Pharma, Inc., priority 2020, published 2023):
Several values for one entry are separate records, joined by “and”; a condition that tells them apart may be missing. Identical values can stand only once. Where a SMILES comes first, the peptide text is derived from it. [ ]: non-standard residue; d: D form. Hyp = O=C(O)[C@@H]1C[C@@H](O)CN1

Tests used:
[1] = tested on: IL-8/CXCL8; assay: Example 8 main study Luminex, LPS hPBMCs: IL-8/CXCL8; type: cell-based, human; details: for IL-8/CXCL8 Concentration: single replicates (1st, 2nd, 3rd); for LPS-induced IL-8 (in words): at as low as 5 μM, LPS 5 ug/mL 24 hrs
Procedure: (§1) Human PBMCs were pretreated with YY-101, YDE-011, YDE-043 or reference compound; Xiidra® at various concentration (ranging from […] to 500 nM) for 2 h before stimulation. An equal volume of 0.5% DMSO was used as a vehicle control. Then, the cells were treated with LPS at 5 ug/ml, which was selected based on the pilot study. The supernatants from treated cells were harvested at 24 h and placed in a 96 well for Luminex cytokine & chemokine profiling using a Luminex 200 multiplex assay (Luminex; R&D system, USA).
(§2) The main study arm with triplicate wells per group in a 24-well plate: • 1. Blank • 2. PBMC: 0.5% DMSO • 3. PBMC+LPS (5 ug/ml) • 4. PBMC+YY-101 500 nM • 5. PBMC+YY-101 50 nM • 6. PBMC+YY-101 5 nM • 7. PBMC+YY-101 0.5 nM • 8. PBMC+LPS (5 ug/ml)+Xiidra® 500 nM • 9. PBMC+LPS (5 ug/ml)+Xiidra® 50 nM • 10. PBMC+LPS (5 ug/ml)+Xiidra® 5 nM • 11. PBMC+LPS (5 ug/ml)+Xiidra® 0.5 nM • 12. PBMC+LPS (5 ug/ml)+Xiidra® 0.05 nM • 13. PBMC+LPS (5 ug/ml)+Xiidra® 0.005 nM • 14. PBMC+LPS (5 ug/ml)+YY-101 500 nM • 15. PBMC+LPS (5 ug/ml)+YY-101 50 nM • 16. PBMC+LPS (5 ug/ml)+YY-101 5 nM • 17. PBMC+LPS (5 ug/ml)+YY-101 0.5 nM • 18. PBMC+LPS (5 ug/ml)+YY-101 0.05 nM • 19. PBMC+LPS (5 ug/ml)+YY-101 0.005 nM • 20. PBMC+LPS (5 ug/ml)+YDE-011 500 nM • 21. PBMC+LPS (5 ug/ml)+YDE-011 50 nM • 22. PBMC+LPS (5 ug/ml)+YDE-011 5 nM • 23. PBMC+LPS (5 ug/ml)+YDE-011 0.5 nM • 24. PBMC+LPS (5 ug/ml)+YDE-011 0.05 nM • 25. PBMC+LPS (5 ug/ml)+YDE-011 0.005 nM • 26. PBMC+LPS (5 ug/ml)+YDE-043 500 nM • 27. PBMC+LPS (5 ug/ml)+YDE-043 50 nM • 28. PBMC+LPS (5 ug/ml)+YDE-043 5 nM • 29. PBMC+LPS (5 ug/ml)+YDE-043 0.5 nM • 30. PBMC+LPS (5 ug/ml)+YDE-043 0.05 nM • 31. PBMC+LPS (5 ug/ml)+YDE-043 0.005 nM
(§3) Multiplex assay was used to measure 30 cytokines and chemokines. The 1:200 diluted cell supernatant and serial dilution of the standard were dispensed into a 96 well plate at 50 ul/well. Then, the pre-mixed cocktail of antibody-coated magnetic beads was dispensed at 50 ul/well and incubated at room temperature for 2 h in a horizontal orbital microplate shaker at 800±500 rpm. The beads were washed using a magnetic device to prevent loss. The biotin-antibody was dispensed in 50 ul of each well and incubated at room temperature for 1 h in a shaker at 800±500 rpm. After washing, streptavidin-PE was added at 50 ul/well and incubated at room temperature for 30 min in a shaker under the same conditions. Finally, after washing, wash buffer (100 ul/well) was added to the plate and incubated in a shaker for 2 min. The Luminex™ 200 setting were set according to the manufacturer's protocol. The data was calculated with a standard five-parameter logistic nonlinear regression analysis of the data (xPonent software 4.2, USA). Results were presented as concentration (ng/ml or pg/ml).

[2] = tested on: IL-10; assay: Example 8 main study Luminex, LPS hPBMCs: IL-10; type: cell-based, human; details: for IL-10 Concentration: individual replicates; for IL-10 Concentration (pg/ml), Mean: mean of replicates; for LPS-induced IL-10 (in words): at as low as 5 μM, LPS 5 ug/mL 24 hrs
Procedure: as §1, §2, §3

[3] = PBMC + LPS(5 ug/ml) + test article 0.005 nM
[4] = PBMC + LPS(5 ug/ml) + test article 0.05 nM
[5] = PBMC + LPS(5 ug/ml) + test article 0.5 nM
[6] = PBMC + LPS(5 ug/ml) + test article 5 nM
[7] = PBMC + LPS(5 ug/ml) + test article 50 nM
[8] = PBMC + LPS(5 ug/ml) + test article 500 nM

SMILES | IL-8/CXCL8 Concentration, Mean [1, 3] [pg/mL] | IL-8/CXCL8 Concentration [1, 3] | IL-8/CXCL8 Concentration, Mean [1, 4] [pg/mL] | IL-8/CXCL8 Concentration [1, 4] | IL-8/CXCL8 Concentration, Mean [1, 5] [pg/mL] | IL-8/CXCL8 Concentration [1, 5] | IL-8/CXCL8 Concentration, Mean [1, 6] [pg/mL] | IL-8/CXCL8 Concentration [1, 6] | IL-8/CXCL8 Concentration, Mean [1, 7] [pg/mL] | IL-8/CXCL8 Concentration [1, 7] | IL-8/CXCL8 Concentration, Mean [1, 8] [pg/mL] | IL-8/CXCL8 Concentration [1, 8] | LPS-induced IL-8 (in words) [1] | IL-10 Concentration [2, 3] | IL-10 Concentration (pg/ml), Mean [2, 3] [pg/mL] | IL-10 Concentration [2, 4] | IL-10 Concentration (pg/ml), Mean [2, 4] [pg/mL] | IL-10 Concentration [2, 5] | IL-10 Concentration (pg/ml), Mean [2, 5] [pg/mL] | IL-10 Concentration [2, 6] | other results
CC(C)C[C@H](NC(=O)CNC(=O)[C@H](CC(C)C)NC(=O)[C@H](CCC(N)=O)NC(=O)CNC(=O)[C@@H]1C[C@@H](O)CN1)C(=O)N[C@@H](C)C(=O)NCC(=O)N1CCC[C@H]1C(=O)N[C@@H](CCCCN)C(=O)O [YDE-011] (H-[Hyp]GQLGLAGPK-OH) | 54720.2 | 55905.6 pg/mL and 51994.7 pg/mL and 56260.2 pg/mL | 61143.7 | 61568.6 pg/mL and 60755.7 pg/mL and 61106.8 pg/mL | 52309.1 | 52927.0 pg/mL and 52269.8 pg/mL and 51730.5 pg/mL | 46534.3 | 45587.7 pg/mL and 43107.6 pg/mL and 50907.7 pg/mL | 46922.1 | 54235.8 pg/mL and 55272.7 pg/mL and 31257.8 pg/mL | 49501.9 | 66288.2 pg/mL and 31741.3 pg/mL and 50476.2 pg/mL | significantly reduced | 624.7 pg/mL and 409.5 pg/mL and 531.7 pg/mL | 521.9 | 729.2 pg/mL and 611.5 pg/mL and 651.0 pg/mL | 663.9 | 409.5 pg/ml (2×) and 297.6 pg/ml | 372.2 | 181.1 pg/mL and 210.8 pg/mL and 381.9 pg/mL | IL-10 Concentration (pg/ml), Mean [2, 6]: 257.9 pg/mL; IL-10 Concentration [2, 7]: 518.2 pg/mL and 845.0 pg/mL and <2.59 pg/mL; IL-10 Concentration (pg/ml), Mean [2, 7]: 681.6 pg/mL; IL-10 Concentration [2, 8]: 883.3 pg/mL and <2.59 pg/mL and 225.5 pg/mL; IL-10 Concentration (pg/ml), Mean [2, 8]: 554.4 pg/mL; LPS-induced IL-10 (in words) [2]: significantly reduced
CC(C)C[C@H](NC(=O)[C@H](CCC(N)=O)NC(=O)CNC(=O)[C@@H]1C[C@@H](O)CN1)C(=O)NCC(=O)O [YDE-043] (H-[Hyp]GQLG-OH; N-terminus and C-terminus assumed) | 59062.0 | 56206.5 pg/mL and 53607.2 pg/mL and 67372.3 pg/mL | 51146.6 | 48485.5 pg/mL and 53107.5 pg/mL and 51846.7 pg/mL | 52327.4 | 55144.2 pg/mL and 51593.2 pg/mL and 50244.9 pg/mL | 56067.9 | 56540.0 pg/mL and 58269.2 pg/mL and 53394.4 pg/mL | 55575.7 | 57759.9 pg/mL and 58638.2 pg/mL and 50329.0 pg/mL | 51601.8 | 51413.7 pg/mL and 49678.2 pg/mL and 53713.6 pg/mL | significantly reduced | 651.0 pg/mL and 806.6 pg/mL and 1134.2 pg/mL | 863.9 | 436.9 pg/mL and 518.2 pg/mL and 381.9 pg/mL | 445.7 | 436.9 pg/mL and 491.3 pg/mL and 624.7 pg/mL | 517.6 | 545.0 pg/mL and 637.8 pg/mL and 558.4 pg/mL | IL-10 Concentration (pg/ml), Mean [2, 6]: 580.4 pg/mL; IL-10 Concentration [2, 7]: 571.7 pg/mL and 598.2 pg/mL and 518.2 pg/mL; IL-10 Concentration (pg/ml), Mean [2, 7]: 562.7 pg/mL; IL-10 Concentration [2, 8]: 464.2 pg/mL and 545.0 pg/mL and 436.9 pg/mL; IL-10 Concentration (pg/ml), Mean [2, 8]: 482.0 pg/mL; LPS-induced IL-10 (in words) [2]: significantly reduced
